# Ends that are not written are not given here.
# B1: linear NBD-MCoTI-II generated by automated synthesis (designed binder)
# chain: FTALDWSWLQTCPKILKKCRRDSDCPGACICRGNGYC
# modifications: ends and bridges not checked; also: folded in glutathione buffers, disulfides not placed
# Assays:
# NF-κB signaling = assay: TNFα-mediated SEAP expression in pNiFty-SEAP transfected HEK293 cells (NF-κB reporter); type: cell-based; conditions: for block of TNFα-mediated SEAP expression (in words): pNiFty-SEAP transfected HEK293 cells
# Description: HEK293 cells were transfected with the plasmid pNiFty-SEAP which encodes for a secreted alkaline phosphatase (SEAP) whose expression is under control of an ELAM-1 composite promoter containing five NF-κB sites. Treatment of cells with TNFα causes activation of the IkB kinase complex and, in turn, NF-κB, resulting in SEAP expression. We verified that pNiFty-SEAP transfected HEK293 cells treated with the NBD Peptide (FIG. 2; FIG. 3, Panel B) blocked the expression of TNFα-mediated SEAP expression in a concentration-dependent manner with an IC50 of ˜60 μM. […] Treatment of cells with circularized NBD-MCoTI-II generated in bacteria (data not shown) or linear NBD-MCoTI-II generated by automated synthesis (FIG. 2; FIG. 3 Panel A) blocked TNFα-mediated SEAP expression, but not WT MCoTI-II (FIG. 2).
# [1] = test system: collagen-induced arthritis; assay: Mouse collagen-induced arthritis (CIA) model, therapeutic mode; type: in vivo, male DBA/1J mice
# Protocol: We next tested the efficacy of linear NBD-MCoTI-II in the mouse CIA model in therapeutic mode, a standard model for evaluating anti-arthritic activity. Mice were injected with collagen type II. CIA was induced in male DBA/1J mice by tail injection of Type II collagen (100 μg) mixed with complete Freund's adjuvant. On Day 21, a booster injection (i.p.) of collagen (100 μg)/incomplete Freund's adjuvant was administered. The severity of arthritis (arthritic index (AI)) was scored in each paw as follows: 0-no evidence of erythema and swelling, 1-erythema and mild swelling confined to the mid-foot (tarsals) or ankle joint, 2-erythema and mild swelling extending from the ankle to the mid-foot, 3-erythema and moderate swelling extending from the ankle to the metatarsal joints and 4-erythema and severe swelling encompass the ankle, foot and digits. AI scores were measured in each paw and summed (maximum score of 16 per mouse). After the AI score reached an average of 3.1 on Day 27, mice were separated into three treatment groups and administered (i.p.) daily: saline, 100 μg/kg NBD-MCoTI-II and 3 mg/kg dexamethasone for 14 days. AI scores, body weights, paw thickness and any signs of distress were monitored daily. […] The marked inhibition of arthritic disease progression by NBD-MCoTI-II persisted for the study duration. […] The effect lasted the study duration.
# To further assess the efficacy of linear NBD-MCoTI-II we performed histopathology analysis of the studies on the joints of CIA mice treated with saline and NBD-MCoTI-II (100 μg/kg).
# To compare the efficacy of NBD-MCoTI-II to existing anti-arthritic drugs we calculated a composite histopathology score for the CIA mice from the individual scores of inflammation, pannus, cartilage damage and bone resorption by adding them. Shown in FIG. 9 is a comparison of the composite histopathology scores for NBD-MCoTI-II (100 μg/kg) to published values for the existing anti-arthritic drugs Enbrel™ (15 mg/kg), Orencia™ (5 mg/kg), Xeljanz™ (10 mg/kg) and INCB028050 (15/mg). Data are presented as a percent of the composite histopathology scores for CIA mice treated with saline. […] J Immunol 184:5298-307, the contents of each of which are herein incorporated by reference in their entireties). […] Thus, linear NBD-MCoTI-II prevented joint damage while the other anti-arthritic drugs were only capable of reducing joint damage.
# Splenomegaly is associated with arthritis and has been observed in the mouse CIA model [(see, e.g., Foell J L et al., (2004) Engagement of the CD137 (4-1BB) costimulatory molecule inhibits and reverses the autoimmune process in collagen-induced arthritis and establishes lasting disease resistance. Immunology 113:89-98; and Liu Y et al., (2011) Therapeutic effects of TACI-Ig on collagen-induced arthritis by regulating T and B lymphocytes function in DBA/1 mice. Eur J Pharmacol 654:304-14); the contents of each of which are herein incorporated by reference in their entirities)].
# Mouse body weights were unchanged relative to saline controls.
# HEK293 cells = type: cell-based; conditions: concentrations up to 1 μM
# [2] = test system: carrageenan-induced paw edema; assay: Mouse carrageenan paw edema (CPE) model; type: in vivo; conditions: for reduction of swelling: 12 hours post-carrageenan
# Protocol: Anti-inflammatory activity of linear NBD-MCoTI-II was tested at two doses (5 and 25 μg/kg) in the mouse CPE model. Mice were administered (i.p.) either NBD-MCoTI-II, dexamethasone (10 mg/kg) or saline one hour prior to inducing edema by carrageenan injection into the subplantar region of the left hind foot. Swelling was then measured by water displacement method at 2, 4, 6 and 12 hours post-carrageenan injection. […] At 12 hours, 5 and 25 μg/kg NBD MCoTI-II reduced swelling 30 and 50%, respectively (FIG. 5). […] (FIG. 5).
# [3] = target: NEMO (nuclear factor kB essential modulator) (UniProt Q9Y6K9 1-419); assay: cell-based or functional assay
# Sequence of NEMO (nuclear factor kB essential modulator) (UniProt Q9Y6K9 1-419) (Q9Y6K9 whole entry): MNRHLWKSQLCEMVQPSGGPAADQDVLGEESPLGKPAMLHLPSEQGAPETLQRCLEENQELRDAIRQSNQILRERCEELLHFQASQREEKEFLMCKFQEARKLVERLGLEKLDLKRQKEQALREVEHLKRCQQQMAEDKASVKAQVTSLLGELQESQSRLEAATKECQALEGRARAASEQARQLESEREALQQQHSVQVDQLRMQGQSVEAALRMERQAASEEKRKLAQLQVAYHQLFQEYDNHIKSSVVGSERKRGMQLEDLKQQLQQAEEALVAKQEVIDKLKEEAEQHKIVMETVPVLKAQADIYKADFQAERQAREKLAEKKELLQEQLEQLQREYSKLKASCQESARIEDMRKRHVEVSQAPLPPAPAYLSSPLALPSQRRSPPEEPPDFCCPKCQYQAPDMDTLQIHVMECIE
# [4] = target: NEMO (nuclear factor kB essential modulator) (UniProt Q9Y6K9); assay: cell-based or functional assay
# Sequence of NEMO (nuclear factor kB essential modulator) (UniProt Q9Y6K9) (Q9Y6K9 whole entry): as above
molecule,measurement,setting,value
"circularized NBD-MCoTI-II: circular, native-folded NBD-MCoTI-II generated in bacteria; sequence after processing SEQ ID NO:10 (cyclo(FTALDWSWLQTCPKILKKCRRDSDCPGACICRGNGYC); ends not checked; also: native-folded, disulfide pairing not given here)",block of TNFα-mediated SEAP expression (in words),NF-κB signaling,blocked
FTALDWSWLQTCPKILKKCRRDSDCPGACICRGNGYC [linear NBD-MCoTI-II],"joint histopathology scores (inflammation, pannus, cartilage damage, bone resorption)",[1]; 100 μg/kg,at or near zero
same,progression of arthritis (arthritic index score),"[1]; 100 μg/kg i.p. daily, by Day 29, p<0.01, persisted for the study duration",halted the progression of arthritis
same,increase in paw thickness,"[1]; 100 μg/kg i.p. daily, p<0.01, lasted the study duration",blocked the increase in paw thickness
same,composite histopathology score,"[1]; 100 μg/kg, percent of saline-treated CIA mice",almost zero
same,"kidney, liver and intestine weights",[1]; CIA mice,within normal ranges
same,"laboratory blood analysis (blood chemistry, kidney function tests, ALT, AST, blood cell counts)",[1]; CIA mice,within normal ranges
same,signs of toxicity or distress,"[1]; CIA mice, 100 μg/kg i.p. daily for 14 days",no obvious signs of toxicity or distress
same,spleen weight,"[1]; CIA mice, saline 135±27 mg, p<0.01",100 ± 17 mg
same,efficacy relative to CP690550 (Xeljanz) and anti-TNF Ab control in ameliorating arthritic symptoms,[1]; comparison with Milici 2008,at least as effective
same,mouse body weights,[1]; relative to saline controls,unchanged
same,overt cellular toxicity,HEK293 cells,no overt cellular toxicity
same,"potency relative to NBD peptide, inhibition of NF-κB signaling","NF-κB signaling; cell-based assay, versus NBD Peptide",10^6 fold
same,block of TNFα-mediated SEAP expression (in words),NF-κB signaling,blocked
same,in vivo potency relative to NBD Peptide,[2]; 5 μg/kg NBD-MCoTI-II similar to NBD Peptide 25 mg/kg (di Meglio 2005),5000 fold
same,reduction of swelling,[2]; 5 μg/kg i.p.,30%
same,reduction of swelling,[2]; 25 μg/kg i.p.,50%
same,swelling (in words),"[2]; 5 and 25 μg/kg i.p., 4, 6 and 12 hours post-carrageenan",significantly reduced swelling
"WT MCoTI-II: wild-type MCoTI-II (SEQ ID NO:3), cystine-knot microprotein, trypsin inhibitor subfamily (MCGSGSDGGVCPKILKKCRRDSDCPGACICRGNGY; disulfide (positions not given here); not fully specified; listed as Homo sapiens) [reference compound]",overt cellular toxicity,HEK293 cells,no overt cellular toxicity
same,block of TNFα-mediated SEAP expression (in words),NF-κB signaling,not
B1,"IC50 for blocking TNFα-mediated SEAP expression (NF-κB reporter, pNiFty-SEAP transfected HEK293 cells)",[3],60 pM
"FTALDWSWLQT (peptide, part only; not given: cell penetrating peptide, part only, not fully specified) [NBD Peptide]","IC50 for blocking TNFα-mediated SEAP expression (NF-κB reporter, pNiFty-SEAP transfected HEK293 cells)",[4],60 µM

# Reference: patent publication US20150031598A1, “NEMO BINDING DOMAIN FUSION PROTEINS” (Encode Bio, Inc., priority 2012, published 2015)
